From US4748153A, “Compounds having somatostatin-like activity useful as local anti-inflammatory agents” (Merck & Co., Inc., priority 1987, dated 1988) come the findings set out here.

Structures are written as SMILES. Residues, ends and D or L forms follow the SMILES beside them.

Data set [1] has as its system inhibition of growth hormone, insulin and glucogen secretion. Briefly: Potency relative to somatostatin (SRIF). The following applies: SRIF assigned a value of 1, based upon inhibition of growth hormone. As for the experimental part:
(§1) Following the same procedure as described above for Assay 1, additional compounds were tested for local; i.e., topical, anti-inflammatory activity. […] In Table IV, the potency of each compound tested relative to that of somatostatin is also shown, the somatostatin (SRIF) potency being assigned a value of 1 and based upon its inhibition of growth hormone, insulin and glucogen secretion.

Data set [2] has as its system cellular proliferation (granuloma). The data set is described as follows: Pellet granuloma assay, compounds administered subcutaneously as saline injections (Assay 3). It is filed as in vivo, rats (Charles River-CD). As for the experimental part: (§2) Male rats (Charles River-CD) of about 150-160 grams in weight were subcutaneously implanted in the abdominal area with two pellets each. Five animals were used per group. The pellets used were preweighed and all used in a given assay were ±1 mg from one another. The compounds were dissolved in absolute ethanol and the indicated dose applied to each pellet in 0.2 ml. The alcohol was removed in vacuo overnight. Just prior to implantation, each pellet was moistened with 0.2 ml of 0.9% saline containing 1 mg each of penicillin and streptomycin. After seven days, the pellets were dissected out together with adhering granulomatous tissue. After drying in a vacuum oven overnight at 60°-65° C., the pellets were weighed. The difference in weight between the original pellet weight and the implanted pellet weight was used as a measure of cellular proliferation (granuloma). The lower the net weight, the more anti-inflammatory activity.
Following the procedure described above for Assau 1, additional tests were conducted except that the compounds were administered subcutaneously as saline injections. The tests were carried out on six animals per group and the results obtained are shown below in Table III.

Data set [3] shares this test system. Briefly: Pellet granuloma assay, compound applied locally to subcutaneously implanted pellets (Assays 1, 2, 4). It is filed as in vivo, rats (Charles River-CD). The following applies: for Body Wt. Change: Assay 2; for Granulosimer Net weight: Assay 1, six animals per group, 7 days, ± 2 S.E. of mean. As for the experimental part: The assay method employed to test the Formula I, II, III, IV and V compounds as local anti-inflammatory agents is a modification of the method described by S. L. Steelman, et al. [Steroids, 1, 163 (1963)] as follows:
as §2
Following the procedure of the Assay Method described above, somatostatin (SRIF) was tested for its anti-inflammatory activity. The structure of somatostatin is: [drawing 5]
Six animals per group were used in this test and the results obtained are shown in Table I below wherein hydrocortisone was used as a positive control:
The results obtained following the Assay Method described above using Compound 8 of Formula I are shown below in Table II wherein hydrocortisone was used as a positive control.
as §1

Where [4] appears, read: administered subcutaneously, Table III.

With `CC(C)[C@@H]1NC(=O)[C@H](CCCCN)NC(=O)[C@@H](Cc2c[nH]c3ccccc23)NC(=O)[C@H](Cc2ccc(O)cc2)NC(=O)[C@H](C)N(C)C(=O)[C@H](Cc2ccccc2)NC1=O` [Compound 8 of Formula I, Cyclo-(N-Me-Ala-Tyr-D-Trp-Lys-Val-Phe)], in data set [1], the “Potency Relative to Somatostatin (SRIF)” value is 50-100. Also, the “effect on adrenal weight (in words)” value in data set [2] (setting [4]) is recorded as “slight decrease in the adrenal weight”. In addition, the “anti-inflammatory activity (in words)” value in data set [2] (administered systemically, i.e., subcutaneously) was “no anti-inflammatory activity”; in data set [3] (doses of 100-200 micrograms per pellet, Table II), “significant activity”. Also, the “Avg. Adrenal wt.” value in data set [2] (daily dose 200 mcg subcutaneously, ± S.E. of mean) is on record as 36 ± 2 mg. Also, the “Body Wt. Change” value in data set [3] (10 mcg/pellet) is recorded as “+43 gm”; in data set [3] (100 mcg/pellet), “+40 gm”.
Turning to `C[C@]12CCC(=O)C=C1CC[C@@H]1[C@@H]2[C@@H](O)C[C@@]2(C)[C@H]1CC[C@]2(O)C(=O)CO` [Hydrocortisone, hydrocortisone], the “activity (in words)” value in data set [2] (setting [4]) is reported as “typical activity”. Further, the “Body Wt. Change” value in data set [3] (200 mcg/pellet) is on record as “+44 gm”; in data set [3] (1000 mcg/pellet) it was “+41 gm”. Moreover, the “Granulosimer Net weight” value in data set [3] (300 mcg/pellet) was found to be 24 ± 2 mg.
As for `C[C@H](N)C(=O)NCC(=O)N[C@H]1CSSC[C@@H](C(=O)O)NC(=O)[C@H](CO)NC(=O)[C@H]([C@@H](C)O)NC(=O)[C@H](Cc2ccccc2)NC(=O)[C@H]([C@@H](C)O)NC(=O)[C@H](CCCCN)NC(=O)[C@H](Cc2c[nH]c3ccccc23)NC(=O)[C@H](Cc2ccccc2)NC(=O)[C@H](Cc2ccccc2)NC(=O)[C@H](CC(N)=O)NC(=O)[C@H](CCCCN)NC1=O` [SRIF, somatostatin], the “Potency Relative to Somatostatin (SRIF)” value in data set [1] was found to be 1. Moreover, the “Granulosimer Net weight” value in data set [3] (1500 mcg/pellet) is given as 25 ± 1 mg. In addition, the “anti-inflammatory activity (in words)” value in data set [3] (Assay 1, Table I, on pellet) is on record as “effective anti-inflammatory agent”.
For the molecule `CC(C)[C@@H]1NC(=O)[C@H](CCCCN)NC(=O)[C@@H](Cc2c[nH]c3ccccc23)NC(=O)[C@H](Cc2ccc(O)cc2)NC(=O)[C@H](C)N(C)C(=O)[C@H](Cc2c[nH]c3ccccc23)NC1=O` [9/I, Cyclo-(N-Me-Ala-Tyr-D-Trp-Lys-Val-Trp)] (HELM PEPTIDE1{K.V.W.[meA].Y.[dW]}$PEPTIDE1,PEPTIDE1,1:R1-6:R2$$$V2.0), the “Potency Relative to Somatostatin (SRIF)” value in data set [1] is recorded as 20-35.
For the molecule `CC(C)[C@@H]1NC(=O)[C@H](CCCCN)NC(=O)[C@H](Cc2c[nH]c3ccccc23)NC(=O)[C@H](Cc2ccc(O)cc2)NC(=O)[C@H](C)N(C)C(=O)[C@H](Cc2ccccc2)NC1=O` [10/I, Cyclo-(N-Me-Ala-Tyr-L-Trp-Lys-Val-Phe)], the “Potency Relative to Somatostatin (SRIF)” value in data set [1] stood at 50.
On the same count and under the same terms, to `C[C@@H]1NC(=O)[C@H](CO)NC(=O)[C@H](CCCCN)NC(=O)[C@@H](Cc2c[nH]c3ccccc23)NC(=O)[C@H](Cc2c[nH]cn2)NC(=O)[C@H](Cc2ccccc2)N(C)C1=O` [11/I, Cyclo-(Ser-Ala-N-Me-Phe-His-D-Trp-Lys)] (HELM PEPTIDE1{A.[meF].H.[dW].K.S}$PEPTIDE1,PEPTIDE1,1:R1-6:R2$$$V2.0) belongs 200.
Same read-out and setting: to `C[C@@H](O)[C@@H]1NC(=O)[C@H](CCCCN)NC(=O)[C@@H](Cc2c[nH]c3ccccc23)NC(=O)[C@H](Cc2ccccc2)NC(=O)[C@@H]2CCCN2C(=O)[C@H](Cc2ccccc2)NC1=O` [13/II, Cyclo-(Pro-Phe-D-Trp-Lys-Thr-Phe)] (HELM PEPTIDE1{P.F.[dW].K.T.F}$PEPTIDE1,PEPTIDE1,1:R1-6:R2$$$V2.0) belongs 6.
